Measurements reported in the supplement of paper PMC10307832.

Columns and labels:
Assay in all cases: relative viability (nuclei count vs DMSO), 5 days (fraction); higher = more cells survive
[1] = compound: O=C(O)c1ccc2c(c1)nc(Nc1cccc(Cl)c1)c1ccncc12 [Silmitasertib] + CCNC(=O)c1noc(-c2cc(C(C)C)c(O)cc2O)c1-c1ccc(CN2CCOCC2)cc1 [Luminespib] (partner 0.01 µM)
Summary of the method: (§1)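 Lung cancer cell lines, seeded in 1536-well plates, were treated the following day by pin tool with a single drug or with five library-drug doses (not always all listed) in √10 steps on top of a fixed anchor-drug dose. Cells were fixed and nuclei stained in one step after 5 days, and nuclei were counted. Relative viability is the nuclei count for treated wells divided by that for vehicle wells, reported as medians of duplicate plates.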

[2] = compound: O=C(O)c1ccc2c(c1)nc(Nc1cccc(Cl)c1)c1ccncc12 [Silmitasertib] + CC(C)C[C@H](NC(=O)[C@H](Cc1ccccc1)NC(=O)c1cnccn1)B(O)O [Bortezomib] (partner 0.002 µM)
Summary of the method: as §1

[3] = compound: O=C(O)c1ccc2c(c1)nc(Nc1cccc(Cl)c1)c1ccncc12 [Silmitasertib] + COc1cc2c(Oc3ccc(NC(=O)C4(C(=O)Nc5ccc(F)cc5)CC4)cc3F)ccnc2cc1OCCCN1CCOCC1 [Foretinib] (partner 0.25 µM)
Summary of the method: as §1

[4] = compound: O=C(O)c1ccc2c(c1)nc(Nc1cccc(Cl)c1)c1ccncc12 [Silmitasertib] + Cc1cc(Nc2cc(N3CCN(C)CC3)nc(Sc3ccc(NC(=O)C4CC4)cc3)n2)n[nH]1 [Tozasertib] (partner 0.1 µM)
Summary of the method: as §1

[5] = compound: O=C(O)c1ccc2c(c1)nc(Nc1cccc(Cl)c1)c1ccncc12 [Silmitasertib] + O=C(CCCCCCC(=O)Nc1ccccc1)NO [Vorinostat] (partner 1 µM)
Summary of the method: as §1

Cell Line	relative viability ([1]; first compound 0.04 µM)	relative viability ([1]; first compound 0.4 µM)	relative viability ([1]; first compound 1.265 µM)	relative viability ([1]; first compound 4 µM)	relative viability ([2]; first compound 0.04 µM)	relative viability ([2]; first compound 0.4 µM)	relative viability ([2]; first compound 1.265 µM)	relative viability ([2]; first compound 4 µM)	relative viability ([3]; first compound 0.04 µM)	relative viability ([3]; first compound 0.4 µM)	relative viability ([3]; first compound 1.265 µM)	relative viability ([3]; first compound 4 µM)	relative viability ([4]; first compound 0.04 µM)	relative viability ([4]; first compound 0.4 µM)	relative viability ([4]; first compound 1.265 µM)	relative viability ([4]; first compound 4 µM)	relative viability ([5]; first compound 0.04 µM)	relative viability ([5]; first compound 0.4 µM)	relative viability ([5]; first compound 1.265 µM)	relative viability ([5]; first compound 4 µM)
201T	1.03	1.03	1.12	1.28	1.03	1.1	1.16	1.2	1.2	1.19	1.09	1.21	0.955	0.818	1.04	1.05	1.09	0.949	1.02	0.837
A-427	1.04		1.06	0.656	1.1		1.24	0.703	1.1		1.13	0.869	0.19		0.132	0.15	0.87	0.761	0.954	0.568
ABC-1	0.889	0.696	0.332	0.312	0.402	0.353	0.281	0.226	1.07	0.83	0.457	0.367	0.19	0.165	0.185	0.193	1.22	0.733	0.642	0.553
BEN	0.484		0.623	0.284	0.9	0.584	0.644	0.599	0.858		0.657	0.467	0.435	0.367	0.481	0.422	0.648	0.475	0.456	0.545
CAL-12T	0.363	0.531	0.278	0.125	1.12	0.949	0.777	0.709	1.12	1.02	1.06	0.478	0.292	0.282	0.227	0.175	0.891	0.876	0.746	0.525
COR-L23	0.716	0.66	0.646	0.678	1.15	0.723	0.919	0.932	1.09	0.794	0.951	1.16	0.232	0.2	0.118	0.159	0.62	0.378	0.525	0.401
COR-L 105	0.709	0.767	0.541	0.447	0.803	0.708	0.64	0.414	1.44	0.881	0.791	0.562	0.394	0.349	0.389	0.326	0.843	0.901	0.688	0.663
ChaGo-K-1	0.586	0.57	0.566	0.607	1.32	0.934	0.957	0.537	0.99	0.731	0.876	0.971	0.198	0.219	0.231	0.241	0.786	0.574	0.62	0.539
EKVX	0.986	0.605	0.718	0.884	1.12	0.686	0.928	0.59	0.783	0.435	0.408	0.411	0.434	0.25	0.295	0.405	0.951	0.464	0.541	0.584
EMC-BAC-2	1.22	1.13	0.876	0.39	1.05	0.999	1.06	0.784	1.04	0.861	0.577	0.411	0.291	0.272	0.198	0.162	0.595	0.455	0.287	0.169
EPLC-272H	1.05		0.18	0.181	0.906		0.573	0.491	0.687		0.321	0.219	0.215		0.205	0.187	0.454	0.685	0.391	0.13
H3255	0.893	0.849	1.02	0.504	0.937	0.848	0.741	0.36	1.02	0.549	0.746	0.97	0.756	0.593	0.678	0.59	0.747	0.772	0.868	0.645
HARA	0.738	0.724	0.396	0.646	1.12	0.812	0.949	0.766	0.87	0.627	0.473	0.734	0.107	0.0804	0.0797	0.0693	0.627	0.301	0.464	0.416
HCC-15	0.368	0.204	0.281	0.207	1.02	0.655	0.856	0.408	1.03	0.86	0.772	0.761	0.392	0.356	0.232	0.133	1.02	0.699	0.579	0.671
HCC-44	1.14	1.07	1.05	1.09	0.858	0.753	0.883	0.49					1.13	0.853	0.802	0.691	1.06	0.903	1.24	1.16
HCC-78					0.609	0.333		0.551	0.503	0.523	0.457	0.621	0.446	0.315	0.384	0.492	0.459	0.421	0.402	0.437
HCC-366					1.1		0.995	0.482	1	0.877	0.78	1.02	0.107	0.0962	0.0628	0.0717	0.396	0.221	0.413	0.0566
HCC-827	0.616		0.524	0.355	1.04		1.2	0.89	1.09		1.06	1.2	0.454		0.398	0.471	0.861		0.241	0.555
HOP-62	0.954		1.04	0.969	0.504		0.425	0.486	1.1		1.18	1.14	0.4		0.341	0.296	0.779		0.584	0.388

Cell Line	relative viability ([1]; first compound 0.04 µM)	relative viability ([1]; first compound 0.4 µM)	relative viability ([1]; first compound 1.265 µM)	relative viability ([1]; first compound 4 µM)	relative viability ([2]; first compound 0.04 µM)	relative viability ([2]; first compound 0.4 µM)	relative viability ([2]; first compound 1.265 µM)	relative viability ([2]; first compound 4 µM)	relative viability ([3]; first compound 0.04 µM)	relative viability ([3]; first compound 0.4 µM)	relative viability ([3]; first compound 1.265 µM)	relative viability ([3]; first compound 4 µM)	relative viability ([4]; first compound 0.04 µM)	relative viability ([4]; first compound 0.4 µM)	relative viability ([4]; first compound 1.265 µM)	relative viability ([4]; first compound 4 µM)	relative viability ([5]; first compound 0.04 µM)	relative viability ([5]; first compound 0.4 µM)	relative viability ([5]; first compound 1.265 µM)	relative viability ([5]; first compound 4 µM)
IA-LM					0.879	0.632	1.01	0.586	1.1	0.886	1.14	0.716					1.05		1.21	0.538
LC-2-ad	1.22	1.03	1.21	1.09	1.13	0.858	1	0.605	1.14	0.891	0.898	0.827	0.537	0.411	0.388	0.374	0.712	0.573	0.753	0.3
LCLC-97TM1	0.892		0.691	0.442	1.13		0.521	0.208	0.905		0.809	0.861	0.247		0.168	0.162	0.605		0.654	0.119
LCLC-103H	0.909	0.707	0.751	0.548	1.15	0.956	0.817	0.739	0.828	0.74	0.632	0.625	0.522	0.341	0.356	0.289	0.823	0.693	0.774	0.428
LK-2	0.168		0.174	0.169					1.07		1.08	0.818	0.165		0.169	0.19	0.296		0.404	0.18
LOU-NH91	0.355	0.301	0.264	0.248	0.509	0.46	0.394	0.452	0.948	0.786	0.859	0.827	0.689	0.539	0.441	0.484	1.06	0.874	0.784	0.514
LU99A	0.272	0.361	0.259	0.201	1.22	1.18	0.899	0.438	0.823	0.833	0.844	0.738	0.316	0.29	0.263	0.256	0.519	0.546	0.482	0.374
LXF-289	0.592		0.652	0.647	1.02		1.05	0.979	0.983		1.04	1.05	0.212		0.186	0.182	0.751		0.747	0.862
NCI-H23	0.217	0.197	0.215	0.217	1.01		0.782	0.706	0.97		0.65	0.735	0.427		0.223	0.188	0.6	0.281	0.545	0.165
NCI-H358	0.39		0.22	0.192					0.876	0.573	0.653	0.474	0.121	0.0941	0.115	0.083	0.774	0.652	0.677	0.692
NCI-H522	1.71	0.859	0.938	1.24									0.611	0.464	0.541	0.574	0.99	0.715	0.929	0.863
NCI-H1395	0.635	0.562	0.539	0.713					0.894	0.805	0.97	0.972	0.742	0.559	0.68	0.623	0.93	0.616	0.662	0.538
NCI-H1703					0.352	0.278	0.294	0.193	0.348	0.375	0.359	0.415								
NCI-H1792	0.452	0.385	0.57	0.375	0.943	0.68	0.53	0.864												
NCI-H1793	0.21	0.152	0.157	0.161					0.757	0.62	0.427	0.607	0.392	0.297	0.2	0.331	0.989	0.619	0.718	0.213
NCI-H1944	0.549	0.653	0.765	0.793					0.924	0.768	0.92	1	0.259	0.266	0.237	0.308	0.595	0.459	0.647	0.531
NCI-H2170	0.657	0.593	0.656	0.707					1.01	0.881	0.916	1.01	0.673	0.478	0.713	0.65	0.81	0.503	0.73	0.683
SK-MES-1	0.821	0.801	0.397	0.213					1.12	0.885	0.946	0.535	1.07	1.02	0.542	0.159	1.21	0.876	0.8	0.297
SW 900	0.188	0.167	0.157	0.178					1.05	0.477	0.817	0.424	0.649	0.413	0.38	0.349	0.585	0.403	0.446	0.172
